Where “and” joins values, the source holds several entries; their conditions need not be identical. Identical values can stand only once.
What was measured:
[1] = system: U2OS line transduced with the Bmal 1-Luc reporter; assay: Period of the circadian rhythm in U2OS cells with Bmal1-Luc reporter (luminescence, cosinor analysis); format: cell-based, Human; conditions: U2OS, DMSO control = 1.00
Procedure: Human osteosarcoma U2OS cells were grown in standard DMEM medium with 10% fetal bovine serum. U2OS cells were transduced with lentiviral particles containing a Bmall-Luc fusion reporter and selected under Blasticidin. The cell line was clonally expanded and a single monoclonal cell line was used for further experiments. Cells were cultured in a 384-well plate in growth medium to 90+% confluence. Test compound or vehicle (DMSO) was applied to recording medium with 100 U/ml penicillin, 100 ug/ml streptomycin, 1x GlutaMAX, 10% fetal bovine serum, and 0.1 mM Luciferin-EF. Luminescence was recorded every hour for the next 144 hours. Circadian rhythm analysis was performed using cosinor analysis.
The length of the period was expressed relative to the period of cells affected only by DMSO vehicle (their period is therefore 1.00). […] The overall effect on circadian oscillations unequivocally proves that the compounds of formula I can be also used to temporally modulate the concentration and activity of not only BMAL1, but also other components of the oscillator including the critical components PER2, CRY and CLOCK in time, as these are an essential part of the mechanism generating the rhythmic expression of the luminescent reporter used. The concentration and level of other proteins, whose rhythmic expression is controlled by an oscillator in the brain and peripheral tissues (so-called clock-controlled genes), are also necessarily affected. The influence of the compounds of formula I on the activity of oscillator components and subordinate genes also means influencing the physiological processes of the cell controlled by these genes and proteins. N^6-furfuryladenine was used as a reference compound. […] The ability to shift the phase of the circadian cycle can be seen in FIG. 2.

[2] = system: NIH3T3 line transfected with the Per2-Luc reporter; assay: Period of the circadian rhythm in NIH3T3 fibroblasts with Per2-Luc reporter (luminescence, cosinor analysis); format: cell-based, mouse; conditions: NIH3T3, DMSO control = 1.00
Procedure: NIH3T3 mouse embryonic fibroblasts were grown in standard DMEM with 10% fetal bovine serum. NIH3T3 cells were transfected with 1 μg of Per2-Luc reporter using GeneJuice and selected under hygromycin. The cell line was clonally expanded and a single monoclonal cell line was used for further experiments. Cells were cultured in a 96-well plate in growth medium to 90+% confluence. Test compound or vehicle (DMSO) was applied to recording medium with 100 U/ml penicillin, 100 μg/ml streptomycin, 1x GlutaMAX, 10% fetal calf serum and 0.1 mM Luciferin-EF (Promega Madison, WI, USA). Luminescence was recorded every hour for the next 144 hours. Circadian rhythm analysis was performed using cosinor analysis. Period length was expressed relative to the period of cells affected only by DMSO vehicle (their period length is therefore 1.00).

## Clc1nc(NCc2ccco2)c2[nH]cnc2n1 [2-chloro-N^6-furfuryladenine, reference compound]
[1]; 20 μM
  Period length ± standard error of the mean (expressed relative to control) at the indicated concentration: 20 μM: 1.00 ± 0.03

## CCOCCn1cnc2c(NCc3ccco3)ncnc21 [9-(2-ethoxyethyl)-N-(furan-2-ylmethyl)-9H-purin-6-amine, reference compound]
[2]; 50 μM
  Period length ± standard error of the mean (expressed relative to the control) at the indicated concentration: 50 μM: 0.97 ± 0.03
[1]; 50 μM
  Period length ± standard error of the mean (expressed relative to control) at the indicated concentration: 50 μM: 0.99 ± 0.01

## CCOCn1cnc2c(NCc3ccco3)ncnc21 [9-(ethoxymethyl)-N-(furan-2-ylmethyl)-9H-purin-6-amine, reference compound]
[2]; 50 μM
  Period length ± standard error of the mean (expressed relative to the control) at the indicated concentration: 50 μM: 1 ± 0.03
[1]; 50 μM
  Period length ± standard error of the mean (expressed relative to control) at the indicated concentration: 50 μM: 1.01 ± 0.01

## Nc1ncnc2c1ncn2C1CCCO1 (stereo not shown) [9-(tetrahydrofuran-2-yl)-9H-purin-6-amine, reference compound]
[1]; 20 μM
  Period length ± standard error of the mean (expressed relative to control) at the indicated concentration: 20 μM: 0.98 ± 0.02

## CC(C)(C)OCCn1cnc2c(NCc3ccco3)ncnc21 [9-[2-(tert-butoxy)ethyl]-N-(furan-2-ylmethyl)-9H-purin-6-amine, reference compound]
[2]; 50 μM
  Period length ± standard error of the mean (expressed relative to the control) at the indicated concentration: 50 μM: 0.9 ± 0.06
[1]; 50 μM
  Period length ± standard error of the mean (expressed relative to control) at the indicated concentration: 50 μM: 1 ± 0.01

## c1ccc(Cn2cnc3c(NCc4ccco4)ncnc32)cc1 [9-benzyl-N-(furan-2-ylmethyl)-9H-purin-6-amine, reference compound]
[2]; 10 μM
  Period length ± standard error of the mean (expressed relative to the control) at the indicated concentration: 10 μM: 1 ± 0.02
[1]; 10 μM
  Period length ± standard error of the mean (expressed relative to control) at the indicated concentration: 10 μM: 1 ± 0.02

## c1coc(CNc2ncnc3c2ncn3C2CCCO2)c1 (stereo not shown) [Compound 2]
[1]; 10 μM
  Period length ± standard error of the mean (expressed relative to control) at the indicated concentration: 10 μM: 1.05 ± 0.01

## c1coc(CNc2ncnc3c2ncn3C2CCOC2)c1 (stereo not shown) [Compound 3, N-(furan-2-ylmethyl)-9-(tetrahydrofuran-3-yl)-9H-purin-6-amine]
[1]; 10 μM
  Period length ± standard error of the mean (expressed relative to control) at the indicated concentration: 10 μM: 1.06 ± 0.01

## c1coc(CNc2ncnc3c2ncn3C2CCOCC2)c1 [Compound 5]
[1]; 10 μM
  Period length ± standard error of the mean (expressed relative to control) at the indicated concentration: 10 μM: 1.05 ± 0.01

## Clc1nc(NCc2ccco2)c2ncn(C3CCCO3)c2n1 (stereo not shown) [Compound 7]
[1]; 10 μM
  Period length ± standard error of the mean (expressed relative to control) at the indicated concentration: 10 μM: 1.13 ± 0.02

## Clc1nc(NCc2ccco2)c2ncn(C3CCOC3)c2n1 (stereo not shown) [Compound 8]
[1]; 10 μM
  Period length ± standard error of the mean (expressed relative to control) at the indicated concentration: 1.04 ± 0.01
[1]; 20 μM
  Period length ± standard error of the mean (expressed relative to control) at the indicated concentration: 1.22 ± 0

## Clc1nc(NCc2ccco2)c2ncn(C3CCCCO3)c2n1 (stereo not shown) [Compound 9]
[1]; 10 μM
  Period length ± standard error of the mean (expressed relative to control) at the indicated concentration: 1.09 ± 0.01
[1]; 20 μM
  Period length ± standard error of the mean (expressed relative to control) at the indicated concentration: 1.11 ± 0.01

## Cc1ccc(CNc2nc(Cl)nc3c2ncn3C2CCCO2)o1 (stereo not shown) [Compound 12]
[1]; 10 μM
  Period length ± standard error of the mean (expressed relative to control) at the indicated concentration: 10 μM: 1.16 + 0.01

## Cc1ccc(CNc2nc(Cl)nc3c2ncn3C2CCCCO2)o1 (stereo not shown) [Compound 13, 2-chloro-N-[(5-methylfuran-2-yl)methyl]-9-(tetrahydro-2H-pyran-2-yl)-9H-purin-6-amine]
[2]; 10 μM
  Period length ± standard error of the mean (expressed relative to the control) at the indicated concentration: 10 μM: 1.19 ± 0.01

## OCCNc1nc(NCc2ccco2)c2ncn(C3CCCC3)c2n1 [Compound 19]
[1]; 1 μM
  Period length ± standard error of the mean (expressed relative to control) at the indicated concentration: 1.07 ± 0.01
[1]; 4 μM
  Period length ± standard error of the mean (expressed relative to control) at the indicated concentration: 1.21 ± 0.01

## CC(C)Oc1nc(NCc2ccco2)c2ncn(C3CCCC3)c2n1 [Compound 21]
[1]; 20 μM
  Period length ± standard error of the mean (expressed relative to control) at the indicated concentration: 20 μM: 1.26 ± 0.06

## CNc1nc(NCc2ccco2)c2ncn(C3CCOC3)c2n1 (stereo not shown) [Compound 25]
[1]; 20 μM
  Period length ± standard error of the mean (expressed relative to control) at the indicated concentration: 20 μM: 1.06 ± 0.01

## CN(CCN)c1nc(NCc2ccco2)c2ncn(C3CCOC3)c2n1 (stereo not shown) [Compound 27]
[1]; 20 μM
  Period length ± standard error of the mean (expressed relative to control) at the indicated concentration: 20 μM: 1.25 ± 0.01

## CN(C)CCNc1nc(NCc2ccco2)c2ncn(C3CCOC3)c2n1 (stereo not shown) [Compound 28]
[1]; 20 μM
  Period length ± standard error of the mean (expressed relative to control) at the indicated concentration: 20 μM: 1.16 ± 0

## NCCNc1nc(NCc2ccco2)c2ncn(C3CCOC3)c2n1 (stereo not shown) [Compound 29]
[1]; 20 μM
  Period length ± standard error of the mean (expressed relative to control) at the indicated concentration: 20 μM: 1.09 ± 0

## OCCNc1nc(NCc2ccco2)c2ncn(C3CCOC3)c2n1 (stereo not shown) [Compound 30]
[1]; 20 μM
  Period length ± standard error of the mean (expressed relative to control) at the indicated concentration: 20 μM: 1.05 ± 0

## c1coc(CNc2nc(N3CCOCC3)nc3c2ncn3C2CCOC2)c1 (stereo not shown) [Compound 31]
[1]; 20 μM
  Period length ± standard error of the mean (expressed relative to control) at the indicated concentration: 20 μM: 1.13 ± 0.01

## CC(C)Oc1nc(NCc2ccco2)c2ncn(C3CCOC3)c2n1 (stereo not shown) [Compound 32]
[1]; 20 μM
  Period length ± standard error of the mean (expressed relative to control) at the indicated concentration: 20 μM: 1.09 ± 0

## c1coc(CNc2nc(NC3CCCC3)nc3c2ncn3C2CCCCO2)c1 (stereo not shown) [Compound 39]
[1]; 20 μM
  Period length ± standard error of the mean (expressed relative to control) at the indicated concentration: 20 μM: 1.05 ± 0.01

## c1coc(CNc2nc(N3CCCC3)nc3c2ncn3C2CCCCO2)c1 (stereo not shown) [Compound 40]
[1]; 10 μM
  Period length ± standard error of the mean (expressed relative to control) at the indicated concentration: 10 μM: 1.04 ± 0

## NCCNc1nc(NCc2ccco2)c2ncn(C3CCCCO3)c2n1 (stereo not shown) [Compound 41]
[1]; 1 μM
  Period length ± standard error of the mean (expressed relative to control) at the indicated concentration: 1.03 ± 0.01
[1]; 5 μM
  Period length ± standard error of the mean (expressed relative to control) at the indicated concentration: 1.07 ± 0
[1]; 20 μM
  Period length ± standard error of the mean (expressed relative to control) at the indicated concentration: 1.32 ± 0.01

## CN(CCN)c1nc(NCc2ccco2)c2ncn(C3CCCCO3)c2n1 (stereo not shown) [Compound 43]
[1]; 1 μM
  Period length ± standard error of the mean (expressed relative to control) at the indicated concentration: 1 μM: 1.08 ± 0.01

## c1coc(CNc2nc(N3CCOCC3)nc3c2ncn3C2CCCCO2)c1 (stereo not shown) [Compound 47]
[1]; 5 μM
  Period length ± standard error of the mean (expressed relative to control) at the indicated concentration: 1.08 ± 0.01
[1]; 20 μM
  Period length ± standard error of the mean (expressed relative to control) at the indicated concentration: 1.47 ± 0.03

## CC(C)Oc1nc(NCc2ccco2)c2ncn(C3CCCCO3)c2n1 (stereo not shown) [Compound 49, N-(furan-2-ylmethyl)-2-isopropoxy-9-(tetrahydro-2H-pyran-2-yl)-9H-purin-6-amine]
[1]; 20 μM
  Period length ± standard error of the mean (expressed relative to control) at the indicated concentration: 20 μM: 1.14 ± 0.01

## Cc1ccc(CNc2nc(N(C)C)nc3c2ncn3C2CCCCO2)o1 (stereo not shown) [Compound 51]
[2]; 0.83 μM
  Period length ± standard error of the mean (expressed relative to the control) at the indicated concentration: 1.05 ± 0.02
[2]; 10 μM
  Period length ± standard error of the mean (expressed relative to the control) at the indicated concentration: 1.08
[2]; 50 μM
  Period length ± standard error of the mean (expressed relative to the control) at the indicated concentration: 0.02; 50 μM: 1.74 ± 0.2

## CNc1nc(NCc2ccco2)c2ncn(C3CCOCC3)c2n1 [Compound 52]
[1]; 20 μM
  Period length ± standard error of the mean (expressed relative to control) at the indicated concentration: 20 μM: 1.08 ± 0.01

## CN(C)c1nc(NCc2ccco2)c2ncn(C3CCOCC3)c2n1 [Compound 53]
[1]; 20 μM
  Period length ± standard error of the mean (expressed relative to control) at the indicated concentration: 20 μM: 1.22 ± 0.01

## CN(CCN)c1nc(NCc2ccco2)c2ncn(C3CCOCC3)c2n1 [Compound 54]
[1]; 5 μM
  Period length ± standard error of the mean (expressed relative to control) at the indicated concentration: 5 μM: 1.14 ± 0.02

## CN(C)CCNc1nc(NCc2ccco2)c2ncn(C3CCOCC3)c2n1 [Compound 55, N^2-(2-(dimethylamino)ethyl)-N^6-(furan-2-ylmethyl)-9-(tetrahydro-2H-pyran-4-yl)-9H-purine-2,6-diamine]
[1]; 4 μM
  Period length ± standard error of the mean (expressed relative to control) at the indicated concentration: 4 μM: 1.16 ± 0.01

## OCCNc1nc(NCc2ccco2)c2ncn(C3CCOCC3)c2n1 [Compound 57]
[1]; 20 μM
  Period length ± standard error of the mean (expressed relative to control) at the indicated concentration: 20 μM: 1.16 ± 0.01

## c1coc(CNc2nc(N3CCOCC3)nc3c2ncn3C2CCOCC2)c1 [Compound 58]
[1]; 20 μM
  Period length ± standard error of the mean (expressed relative to control) at the indicated concentration: 20 μM: 1.42 ± 0.04

## CC(C)Oc1nc(NCc2ccco2)c2ncn(C3CCOCC3)c2n1 [Compound 59]
[1]; 20 μM
  Period length ± standard error of the mean (expressed relative to control) at the indicated concentration: 1.2 ± 0.01 and 1.11 ± 0.02

## CN(C)c1nc(NCc2ccco2)c2ncn(C3CCCCCO3)c2n1 (stereo not shown) [Compound 61]
[1]; 10 μM
  Period length ± standard error of the mean (expressed relative to control) at the indicated concentration: 1.04 ± 0.01
[1]; 20 μM
  Period length ± standard error of the mean (expressed relative to control) at the indicated concentration: 1.15 ± 0.02

## Cc1ccc(CNc2ncnc3nc[nH]c23)o1 [N^6-(5-methylfurfuryl)adenine, reference compound]
[1]; 50 μM
  Period length ± standard error of the mean (expressed relative to control) at the indicated concentration: 50 μM: 1.01 ± 0.02
